Results: patent US5401490A, “Markers of tissue hypoxia” (priority 1989, dated 1995)
Read-outs that look alike come from different tables or passages of the source.

Test: Tissue distribution of radioactivity after intravenous injection
Assay type: in vivo, BALB/C mice
Details: mouse, iv, i.v.; for tissue uptake at 0.5 h: 0.50 h
From the text: Tables 1 and 2 show the percent of injected IAZG and IAZA respectively per gram of wet tissue for selected tissues excised from BALB/C mice bearing EMT-6 tumors. This tumor model is known to have a high hypoxic fraction (0.33) (16). […] Hepatobiliary excretion may play a role in blood clearance as evidenced by elevated liver radioactivity and the appearance of activity in the intestine. Some oxidative or reductive metabolites of the 2-nitroimidazoles may also become bound to liver tissue, as was postulated in an in vivo study with ^14 C-MISO (6). This supposition is supported by the persistence of liver radioactivity at longer time periods. […] At 8 and 24 hours thyroid levels of IAZG are 7.2 and 30.9% of the total body activity and for IAZA they are 7.9 and 33.8% of total body activity. EXAMPLE 11 TISSUE DISTRIBUTION AND EXCRETION Tumor propagation of EMT-6 tumors in BALB/C mice was accomplished by subcutaneous injection of a cell suspension (10^5 cells in 0.1 mL) as described previously (10). Tumors reached about 10 mm in diameter (≈0.5 g) at 12 to 14 days, at which time each animal was given a bolus intravenous injection of ^125 I-labelled test drug via the tail vein (40 to 60 kBq in 0.1 mL). At set time periods the animals were asphyxiated with CO2 and exsanguinated via cardiac puncture. Tissues were dissected, weighed wet into vials and counted for ^125 I-activity. Whole-body activity was determined by summation of total activity in tissues and in residual carcass, and blood activity was determined from the blood aliquot, assuming blood to be 6.5% of the total body weight. EXAMPLE 12 Male BALB/c mice (20-25 g) were inoculated subcutaneously in the left flank with a suspension of murine EMT-6 cells (10^5 cells in 0.1 mL) (14). After 12 to 14 days, when the tumors reached the desired size (8-10 mm diameter), each mouse received a single intravenous (iv) injection of ^125 I-IAZA (59 kBq in 0.1 mL). […] Heart, lung, liver, spleen, muscle, bone, thyroid, kidney, stomach, small intestine, tail, tumor and skin were removed upon necropsy, weighed and analyzed for ^125 I using a Beckman Model 8000 gamma scintillation counter. The remaining carcass mass was also weighed and radioassayed.

[1] = blood, read-out: Percent of Injected Dose per Gram, Blood
[2] = bone, read-out: Percent of Injected Dose per Gram, Bone
[3] = carcass, read-out: Percent of Injected Dose per Gram, Carcass
[4] = heart, read-out: Percent of Injected Dose per Gram, Heart
[5] = intestine, read-out: Percent of Injected Dose per Gram, Intestine
[6] = kidney, read-out: Percent of Injected Dose per Gram, Kidney
[7] = liver, read-out: Percent of Injected Dose per Gram, Liver
[8] = lung, read-out: Percent of Injected Dose per Gram, Lung
[9] = muscle, read-out: Percent of Injected Dose per Gram, Muscle
[10] = spleen, read-out: Percent of Injected Dose per Gram, Spleen
[11] = stomach, read-out: Percent of Injected Dose per Gram, Stomach
[12] = tumor, read-out: Percent of Injected Dose per Gram, Tumor

O=[N+]([O-])c1nccn1[C@@H]1O[C@H](CI)[C@@H](O)[C@@H]1O [IAZA, 1-(5-iodo-5-deoxy-β-D-arabino-furanosyl)-2-nitroimidazole]
tissue uptake at 0.25 h [1]: 2.63 ± 0.28 %ID/g | tissue uptake at 0.5 h [1]: 2.17 ± 0.85 %ID/g | tissue uptake at 1 h [1]: 1.84 ± 0.72 %ID/g | tissue uptake at 2 h [1]: 0.91 ± 1.56 %ID/g | tissue uptake at 4 h [1]: 0.45 ± 1.24 %ID/g | tissue uptake at 8 h [1]: 0.14 ± 0.07 %ID/g | tissue uptake at 24 h [1]: 0.037 ± 0.047 %ID/g | tissue uptake at 0.25 h [2]: 1.31 ± 0.18 %ID/g | tissue uptake at 0.5 h [2]: 1.37 ± 0.57 %ID/g | tissue uptake at 1 h [2]: 1.15 ± 0.52 %ID/g | tissue uptake at 2 h [2]: 0.58 ± 0.26 %ID/g | tissue uptake at 4 h [2]: 0.27 ± 0.09 %ID/g | tissue uptake at 8 h [2]: 0.08 ± 0.03 %ID/g | tissue uptake at 24 h [2]: 0.022 ± 0.03 %ID/g | tissue uptake at 0.25 h [3]: 2.68 ± 0.44 %ID/g | tissue uptake at 0.5 h [3]: 2.55 ± 0.37 %ID/g | tissue uptake at 1 h [3]: 2.23 ± 0.91 %ID/g | tissue uptake at 2 h [3]: 1.46 ± 0.29 %ID/g | tissue uptake at 4 h [3]: 0.89 ± 0.52 %ID/g | tissue uptake at 8 h [3]: 0.28 ± 0.12 %ID/g | tissue uptake at 24 h [3]: 0.038 ± 0.016 %ID/g | tissue uptake at 0.25 h [4]: 4.69 ± 0.91 %ID/g | tissue uptake at 0.5 h [4]: 3.56 ± 0.66 %ID/g | tissue uptake at 1 h [4]: 2.78 ± 1.3 %ID/g | tissue uptake at 2 h [4]: 1.03 ± 0.43 %ID/g | tissue uptake at 4 h [4]: 0.32 ± 0.24 %ID/g | tissue uptake at 8 h [4]: 0.22 ± 0.05 %ID/g | tissue uptake at 24 h [4]: 0.042 ± 0.017 %ID/g | tissue uptake at 0.25 h [5]: 5.42 ± 1.03 %ID/g | tissue uptake at 0.5 h [5]: 4.44 ± 0.62 %ID/g | tissue uptake at 1 h [5]: 4.63 ± 1.92 %ID/g | tissue uptake at 2 h [5]: 1.73 ± 0.55 %ID/g | tissue uptake at 4 h [5]: 0.81 ± 0.46 %ID/g | tissue uptake at 8 h [5]: 0.77 ± 0.36 %ID/g | tissue uptake at 24 h [5]: 0.041 ± 0.016 %ID/g | tissue uptake at 0.25 h [6]: 6.56 ± 0.63 %ID/g | tissue uptake at 0.5 h [6]: 5.67 ± 0.95 %ID/g | tissue uptake at 1 h [6]: 4.38 ± 1.25 %ID/g | tissue uptake at 2 h [6]: 1.8 ± 0.61 %ID/g | tissue uptake at 4 h [6]: 0.66 ± 0.39 %ID/g | tissue uptake at 8 h [6]: 0.34 ± 0.06 %ID/g | tissue uptake at 24 h [6]: 0.52 ± 0.004 %ID/g | tissue uptake at 0.25 h [7]: 8.65 ± 1.02 %ID/g | tissue uptake at 0.5 h [7]: 7.14 ± 1.13 %ID/g | tissue uptake at 1 h [7]: 5.63 ± 2.27 %ID/g | tissue uptake at 2 h [7]: 2.18 ± 0.8 %ID/g | tissue uptake at 4 h [7]: 0.95 ± 0.58 %ID/g | tissue uptake at 8 h [7]: 0.47 ± 0.1 %ID/g | tissue uptake at 24 h [7]: 0.098 ± 0.008 %ID/g | tissue uptake at 0.25 h [8]: 4.61 ± 0.82 %ID/g | tissue uptake at 0.5 h [8]: 3.77 ± 0.67 %ID/g | tissue uptake at 1 h [8]: 2.99 ± 1.41 %ID/g | tissue uptake at 2 h [8]: 1.15 ± 0.38 %ID/g | tissue uptake at 4 h [8]: 0.45 ± 0.3 %ID/g | tissue uptake at 8 h [8]: 0.33 ± 0.07 %ID/g | tissue uptake at 24 h [8]: 0.037 ± 0.008 %ID/g | tissue uptake at 0.25 h [9]: 3.09 ± 0.67 %ID/g | tissue uptake at 0.5 h [9]: 2.77 ± 0.54 %ID/g | tissue uptake at 1 h [9]: 2.19 ± 1.03 %ID/g | tissue uptake at 2 h [9]: 0.69 ± 0.29 %ID/g | tissue uptake at 4 h [9]: 0.24 ± 0.12 %ID/g | tissue uptake at 8 h [9]: 0.36 ± 0.31 %ID/g | tissue uptake at 24 h [9]: 0.02 ± 0.004 %ID/g | tissue uptake at 0.25 h [10]: 3.57 ± 0.67 %ID/g | tissue uptake at 0.5 h [10]: 3 ± 0.62 %ID/g | tissue uptake at 1 h [10]: 2.48 ± 1.25 %ID/g | tissue uptake at 2 h [10]: 0.93 ± 0.37 %ID/g | tissue uptake at 4 h [10]: 0.35 ± 0.2 %ID/g | tissue uptake at 8 h [10]: 0.18 ± 0.04 %ID/g | tissue uptake at 24 h [10]: 0.036 ± 0.034 %ID/g | tissue uptake at 0.25 h [11]: 4.36 ± 0.7 %ID/g | tissue uptake at 0.5 h [11]: 4.75 ± 1.05 %ID/g | tissue uptake at 1 h [11]: 3.95 ± 0.93 %ID/g | tissue uptake at 2 h [11]: 3.3 ± 0.93 %ID/g | tissue uptake at 4 h [11]: 1.81 ± 1.6 %ID/g | tissue uptake at 8 h [11]: 0.87 ± 0.54 %ID/g | tissue uptake at 24 h [11]: 0.067 ± 0.014 %ID/g | tissue uptake at 0.25 h [12]: 2.55 ± 0.86 %ID/g | tissue uptake at 0.5 h [12]: 3.48 ± 0.46 %ID/g | tissue uptake at 1 h [12]: 2.7 ± 0.39 %ID/g | tissue uptake at 2 h [12]: 2.55 ± 1.65 %ID/g | tissue uptake at 4 h [12]: 2.08 ± 0.27 %ID/g | tissue uptake at 8 h [12]: 1.22 ± 0.24 %ID/g | tissue uptake at 24 h [12]: 0.206 ± 0.23 %ID/g
